Values of other authors, collected in EP1783518B1, “Functionalized dyes and use thereof in ophthalmic lens material” (Ophtec B.V., priority 2005, dated 2007).
Converted amounts (≈) assume the structure as drawn.

SMILES	solubility in EGME (ethylene glycol monomethyl ether (EGME))	solubility in water
Cc1cc(N=Nc2ccc(N=Nc3ccccc3)cc2)ccc1O [Disperse Yellow 7, 4-[[p-(phenylazo)phenyl]azo]-o-cresol]	80 mg/mL (≈ 253 mM)	
O=C(O)c1cc(N=Nc2ccc(N=Nc3ccc(S(=O)(=O)[O-])cc3)cc2)ccc1[O-].[Na+].[Na+] [Mordant Orange 6]		40 mg/mL
Cc1cc(N=Nc2ccc(N=Nc3ccc(S(=O)(=O)O)cc3)cc2)cc(C(=O)O)c1O.[Na+] [Mordant Orange 10]		40 mg/mL
